Assay results from US20240174679A1, “HETEROAROYL AMIDES AS LRRK2 INHIBITORS, PHARMACEUTICAL COMPOSITIONS, AND USES THEREOF” (MERCK SHARP & DOHME LLC, priority 2021, published 2024).

biological target: GST tagged truncated human mutant G2019S LRRK2 (Homo sapiens (Human), UniProt Q5S007, G2019S); test: LRRK2 Km ATP LanthaScreen Assay; format: biochemical; conditions: 134 μM ATP (Km ATP), LRRKtide substrate, negative log of mean IC50 (molar)
How it was run: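 Truncated GST-tagged G2019S LRRK2 (1.25 nM enzyme solution) was preincubated with compound for 15 min at rt, then reacted for 90 min with fluorescein-LRRKtide and 134 μM ATP (Km) in Tris pH 8.5/MgCl2 buffer. After an EDTA stop, TR-FRET used a Tb anti-pERM antibody (520/495 nm ratio). IC50 came from a 4-parameter fit and is reported as pIC50, mean of several runs.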

GST tagged truncated human mutant G2019S LRRK2, sequence (Q5S007 970-2527 G2019S): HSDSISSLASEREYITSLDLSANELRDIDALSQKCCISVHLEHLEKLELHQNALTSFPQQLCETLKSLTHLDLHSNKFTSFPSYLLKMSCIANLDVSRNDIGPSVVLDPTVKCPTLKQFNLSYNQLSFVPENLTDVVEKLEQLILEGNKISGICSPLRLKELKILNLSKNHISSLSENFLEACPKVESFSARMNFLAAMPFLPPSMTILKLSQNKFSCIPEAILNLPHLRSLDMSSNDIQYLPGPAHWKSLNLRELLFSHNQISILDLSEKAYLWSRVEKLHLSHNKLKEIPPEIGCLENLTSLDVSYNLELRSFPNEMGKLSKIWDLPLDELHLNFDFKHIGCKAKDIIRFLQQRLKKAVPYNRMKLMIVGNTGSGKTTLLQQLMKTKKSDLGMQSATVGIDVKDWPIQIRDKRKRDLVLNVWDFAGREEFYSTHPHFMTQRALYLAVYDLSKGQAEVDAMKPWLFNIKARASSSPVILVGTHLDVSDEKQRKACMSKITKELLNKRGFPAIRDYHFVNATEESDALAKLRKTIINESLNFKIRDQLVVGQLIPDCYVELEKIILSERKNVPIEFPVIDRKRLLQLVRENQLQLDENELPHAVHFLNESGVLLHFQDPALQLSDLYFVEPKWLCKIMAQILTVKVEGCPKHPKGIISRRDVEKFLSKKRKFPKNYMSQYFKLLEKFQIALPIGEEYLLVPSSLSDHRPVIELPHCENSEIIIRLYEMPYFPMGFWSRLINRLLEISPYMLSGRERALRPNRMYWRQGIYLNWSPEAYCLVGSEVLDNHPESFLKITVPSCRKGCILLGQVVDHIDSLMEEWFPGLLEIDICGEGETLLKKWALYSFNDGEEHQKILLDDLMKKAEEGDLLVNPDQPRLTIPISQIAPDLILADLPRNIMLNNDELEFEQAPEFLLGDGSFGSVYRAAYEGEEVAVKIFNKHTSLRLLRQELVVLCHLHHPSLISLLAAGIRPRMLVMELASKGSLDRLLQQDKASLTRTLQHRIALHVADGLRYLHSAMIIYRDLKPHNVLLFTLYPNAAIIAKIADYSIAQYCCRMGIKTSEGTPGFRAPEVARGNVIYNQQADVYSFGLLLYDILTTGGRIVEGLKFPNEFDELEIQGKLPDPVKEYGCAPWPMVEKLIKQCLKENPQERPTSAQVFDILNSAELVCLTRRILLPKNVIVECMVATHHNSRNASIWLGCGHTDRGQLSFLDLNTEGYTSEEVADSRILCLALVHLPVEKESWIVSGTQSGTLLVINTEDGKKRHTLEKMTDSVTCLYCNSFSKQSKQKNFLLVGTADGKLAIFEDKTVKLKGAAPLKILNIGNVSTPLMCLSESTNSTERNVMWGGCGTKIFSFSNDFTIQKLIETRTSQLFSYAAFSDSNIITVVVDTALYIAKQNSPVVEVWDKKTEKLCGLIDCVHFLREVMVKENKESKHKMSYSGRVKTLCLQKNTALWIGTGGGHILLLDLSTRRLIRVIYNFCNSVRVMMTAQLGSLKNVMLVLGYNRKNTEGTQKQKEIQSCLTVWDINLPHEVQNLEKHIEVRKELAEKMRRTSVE

SMILES	LRRK2 pIC50
O=C(Nc1cnn(C[C@@H]2CCNC2)c1)c1csc(-c2cn[nH]c2)n1 [Example 7-30, 2-(1H-pyrazol-4-yl)-N-(1-{[(3R)-pyrrolidin-3-yl]methyl}-1H-pyrazol-4-yl)-1,3-thiazole-4-carboxamide]	6.25
CC(C#N)n1cc(NC(=O)c2csc(-c3cn[nH]c3)n2)c(C(F)F)n1 (stereo not shown) [Example 7-31, N-[1-(1-cyanoethyl)-3-(difluoromethyl)-1H-pyrazol-4-yl]-2-(1H-pyrazol-4-yl)-1,3-thiazole-4-carboxamide]	7.40
O=C(Nc1cnn(CCC2CCNCC2)c1)c1csc(-c2cn[nH]c2)n1 [Example 7-32, N-{1-[2-(piperidin-4-yl)ethyl]-1H-pyrazol-4-yl}-2-(1H-pyrazol-4-yl)-1,3-thiazole-4-carboxamide]	7.38
O=C(Nc1cn(CC2CC2)nc1C(F)F)c1csc(-c2cn[nH]c2)n1 [Example 7-33, N-[1-(cyclopropylmethyl)-3-(difluoromethyl)-1H-pyrazol-4-yl]-2-(1H-pyrazol-4-yl)-1,3-thiazole-4-carboxamide]	8.13
CN1CCN(CCCn2cc(NC(=O)c3csc(-c4cn[nH]c4)n3)cn2)CC1 [Example 7-34, N-{1-[3-(4-methylpiperazin-1-yl)propyl]-1H-pyrazol-4-yl}-2-(1H-pyrazol-4-yl)-1,3-thiazole-4-carboxamide]	5.95
N[C@H]1CC[C@](F)(Cn2cc(NC(=O)c3csc(-c4cn[nH]c4)n3)cn2)CC1 [Example 7-35, N-{1-[(cis-4-amino-1-fluorocyclohexyl)methyl]-1H-pyrazol-4-yl}-2-(1H-pyrazol-4-yl)-1,3-thiazole-4-carboxamide]	6.24
NCC1CCC(F)(Cn2cc(NC(=O)c3csc(-c4cn[nH]c4)n3)cn2)CC1 (stereo not shown) [Example 7-36, N-(1-{[4-(aminomethyl)-1-fluorocyclohexyl]methyl}-1H-pyrazol-4-yl)-2-(1H-pyrazol-4-yl)-1,3-thiazole-4-carboxamide]	7.65
N#CC1CCC(Cn2cc(NC(=O)c3csc(-c4cn[nH]c4)n3)cn2)CC1 (stereo not shown) [Example 7-37, N-{1-[(4-cyanocyclohexyl)methyl]-1H-pyrazol-4-yl}-2-(1H-pyrazol-4-yl)-1,3-thiazole-4-carboxamide]	7.72
O=C(Nc1cnn(CC2CC2)c1)c1csc(-c2cn[nH]c2)n1 [Example 7-38, N-[1-(cyclopropylmethyl)-1H-pyrazol-4-yl]-2-(1H-pyrazol-4-yl)-1,3-thiazole-4-carboxamide]	8.02
COc1nn(CC2CC2(F)F)cc1NC(=O)c1csc(-c2cn[nH]c2)n1 (stereo not shown) [Example 7-39, N-{1-[(2,2-difluorocyclopropyl)methyl]-3-methoxy-1H-pyrazol-4-yl}-2-(1H-pyrazol-4-yl)-1,3-thiazole-4-carboxamide]	7.74
CCOCCn1cc(NC(=O)c2csc(-c3cn[nH]c3)n2)c(C(F)F)n1 [Example 7-40, N-[3-(difluoromethyl)-1-(2-ethoxyethyl)-1H-pyrazol-4-yl]-2-(1H-pyrazol-4-yl)-1,3-thiazole-4-carboxamide]	6.97
CC(C)Cn1cc(NC(=O)c2csc(-c3cn[nH]c3)n2)cn1 [Example 7-41, N-[1-(2-methylpropyl)-1H-pyrazol-4-yl]-2-(1H-pyrazol-4-yl)-1,3-thiazole-4-carboxamide]	7.46
CC1(Cn2cc(NC(=O)c3csc(-c4cn[nH]c4)n3)c(C(F)F)n2)COC1 [Example 7-42, N-{3-(difluoromethyl)-1-[(3-methyloxetan-3-yl)methyl]-1H-pyrazol-4-yl}-2-(1H-pyrazol-4-yl)-1,3-thiazole-4-carboxamide]	6.51
